Data as given in the supplement of paper PMC10307832.

What was measured:
Test in all cases: relative viability (nuclei count vs DMSO), 5 days (fraction); higher = more cells survive
NCI-H2023 = test system: NCI-H2023
How it was run: (§1)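 Lung cancer cell lines in 1536-well plates were dosed by pin tool the day after seeding, either with one drug alone or with a fixed anchor-drug dose plus five library-drug doses (not always all listed) in √10 steps. After 5 days, cells were fixed and their nuclei stained in one step (final 0.05% Triton X-100, 1% formaldehyde, 1 ug/ml Hoechst), then counted on 4× images. Relative viability is the nuclei count in treated wells divided by that in vehicle wells. Values are medians of duplicate plates.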

NCI-H2009 = test system: NCI-H2009
How it was run: as §1

SK-LU-1 = test system: SK-LU-1
How it was run: as §1

NCI-H661 = test system: NCI-H661
How it was run: as §1

H3255 = test system: H3255
How it was run: as §1

LCLC-97TM1 = test system: LCLC-97TM1
How it was run: as §1

EMC-BAC-2 = test system: EMC-BAC-2
How it was run: as §1

LXF-289 = test system: LXF-289
How it was run: as §1

NCI-H727 = test system: NCI-H727
How it was run: as §1

NCI-H1993 = test system: NCI-H1993
How it was run: as §1

NCI-H2126 = test system: NCI-H2126
How it was run: as §1

NCI-H647 = test system: NCI-H647
How it was run: as §1

HOP-62 = test system: HOP-62
How it was run: as §1

EPLC-272H = test system: EPLC-272H
How it was run: as §1

NCI-H2347 = test system: NCI-H2347
How it was run: as §1

NCI-H1915 = test system: NCI-H1915
How it was run: as §1

PC-14 = test system: PC-14
How it was run: as §1

SW 1573 = test system: SW 1573
How it was run: as §1

NCI-H2085 = test system: NCI-H2085
How it was run: as §1

NCI-H1734 = test system: NCI-H1734
How it was run: as §1

NCI-H322M = test system: NCI-H322M
How it was run: as §1

SMILES: O=c1cc(N2CCOCC2)oc2c(-c3cccc4c3sc3ccccc34)cccc12 + Nc1ncn([C@H]2C[C@H](O)[C@@H](CO)O2)c(=O)n1 [Decitabine] (partner 2 µM)
- relative viability (NCI-H2023; first compound 0.01 µM): 0.252
- relative viability (NCI-H2023; first compound 0.03162 µM): 0.224
- relative viability (NCI-H2023; first compound 0.1 µM): 0.248
- relative viability (NCI-H2023; first compound 0.3162 µM): 0.251
- relative viability (NCI-H2023; first compound 1 µM): 0.232
- relative viability (NCI-H2009; first compound 0.01 µM): 0.368
- relative viability (NCI-H2009; first compound 0.03162 µM): 0.412
- relative viability (NCI-H2009; first compound 0.1 µM): 0.332
- relative viability (NCI-H2009; first compound 0.3162 µM): 0.368
- relative viability (NCI-H2009; first compound 1 µM): 0.399
- relative viability (SK-LU-1; first compound 0.01 µM): 0.641
- relative viability (SK-LU-1; first compound 0.03162 µM): 0.621
- relative viability (SK-LU-1; first compound 0.1 µM): 0.596
- relative viability (SK-LU-1; first compound 0.3162 µM): 0.621
- relative viability (SK-LU-1; first compound 1 µM): 0.661
- relative viability (NCI-H661; first compound 0.01 µM): 0.563
- relative viability (NCI-H661; first compound 0.03162 µM): 0.53
- relative viability (NCI-H661; first compound 0.1 µM): 0.599
- relative viability (NCI-H661; first compound 0.3162 µM): 0.535
- relative viability (NCI-H661; first compound 1 µM): 0.587
- relative viability (H3255; first compound 0.01 µM): 0.598
- relative viability (H3255; first compound 0.03162 µM): 0.715
- relative viability (H3255; first compound 0.1 µM): 0.56
- relative viability (H3255; first compound 0.3162 µM): 0.604
- relative viability (H3255; first compound 1 µM): 0.533
- relative viability (LCLC-97TM1; first compound 0.01 µM): 0.261
- relative viability (LCLC-97TM1; first compound 0.03162 µM): 0.227
- relative viability (LCLC-97TM1; first compound 0.1 µM): 0.227
- relative viability (LCLC-97TM1; first compound 0.3162 µM): 0.252
- relative viability (LCLC-97TM1; first compound 1 µM): 0.235
- relative viability (EMC-BAC-2; first compound 0.01 µM): 1.05
- relative viability (EMC-BAC-2; first compound 0.03162 µM): 1.02
- relative viability (EMC-BAC-2; first compound 0.1 µM): 1.01
- relative viability (EMC-BAC-2; first compound 0.3162 µM): 0.93
- relative viability (EMC-BAC-2; first compound 1 µM): 0.95
- relative viability (LXF-289; first compound 0.01 µM): 0.457
- relative viability (LXF-289; first compound 0.03162 µM): 0.386
- relative viability (LXF-289; first compound 0.1 µM): 0.391
- relative viability (LXF-289; first compound 0.3162 µM): 0.371
- relative viability (LXF-289; first compound 1 µM): 0.392
- relative viability (NCI-H727; first compound 0.01 µM): 0.749
- relative viability (NCI-H727; first compound 0.03162 µM): 0.914
- relative viability (NCI-H727; first compound 0.1 µM): 0.796
- relative viability (NCI-H727; first compound 0.3162 µM): 0.954
- relative viability (NCI-H727; first compound 1 µM): 0.773
- relative viability (NCI-H1993; first compound 0.01 µM): 0.731
- relative viability (NCI-H1993; first compound 0.03162 µM): 0.639
- relative viability (NCI-H1993; first compound 0.1 µM): 0.569
- relative viability (NCI-H1993; first compound 0.3162 µM): 0.575
- relative viability (NCI-H1993; first compound 1 µM): 0.585
- relative viability (NCI-H2126; first compound 0.01 µM): 0.558
- relative viability (NCI-H2126; first compound 0.03162 µM): 0.609
- relative viability (NCI-H2126; first compound 0.1 µM): 0.601
- relative viability (NCI-H2126; first compound 0.3162 µM): 0.559
- relative viability (NCI-H2126; first compound 1 µM): 0.569
- relative viability (NCI-H647; first compound 0.01 µM): 0.318
- relative viability (NCI-H647; first compound 0.03162 µM): 0.356
- relative viability (NCI-H647; first compound 0.1 µM): 0.382
- relative viability (NCI-H647; first compound 0.3162 µM): 0.419
- relative viability (NCI-H647; first compound 1 µM): 0.371
- relative viability (HOP-62; first compound 0.01 µM): 0.228
- relative viability (HOP-62; first compound 0.03162 µM): 0.227
- relative viability (HOP-62; first compound 0.1 µM): 0.236
- relative viability (HOP-62; first compound 0.3162 µM): 0.249
- relative viability (HOP-62; first compound 1 µM): 0.196
- relative viability (EPLC-272H; first compound 0.01 µM): 0.392
- relative viability (EPLC-272H; first compound 0.03162 µM): 0.398
- relative viability (EPLC-272H; first compound 0.1 µM): 0.329
- relative viability (EPLC-272H; first compound 0.3162 µM): 0.359
- relative viability (EPLC-272H; first compound 1 µM): 0.376
- relative viability (NCI-H2347; first compound 0.01 µM): 0.606
- relative viability (NCI-H2347; first compound 0.03162 µM): 0.632
- relative viability (NCI-H2347; first compound 0.1 µM): 0.609
- relative viability (NCI-H2347; first compound 0.3162 µM): 0.641
- relative viability (NCI-H2347; first compound 1 µM): 0.603
- relative viability (NCI-H1915; first compound 0.01 µM): 0.28
- relative viability (NCI-H1915; first compound 0.03162 µM): 0.253
- relative viability (NCI-H1915; first compound 0.1 µM): 0.256
- relative viability (NCI-H1915; first compound 0.3162 µM): 0.291
- relative viability (NCI-H1915; first compound 1 µM): 0.266
- relative viability (PC-14; first compound 0.01 µM): 0.274
- relative viability (PC-14; first compound 0.03162 µM): 0.272
- relative viability (PC-14; first compound 0.1 µM): 0.191
- relative viability (PC-14; first compound 0.3162 µM): 0.267
- relative viability (PC-14; first compound 1 µM): 0.267
- relative viability (SW 1573; first compound 0.01 µM): 0.625
- relative viability (SW 1573; first compound 0.03162 µM): 0.577
- relative viability (SW 1573; first compound 0.1 µM): 0.529
- relative viability (SW 1573; first compound 0.3162 µM): 0.409
- relative viability (SW 1573; first compound 1 µM): 0.665
- relative viability (NCI-H2085; first compound 0.01 µM): 0.591
- relative viability (NCI-H2085; first compound 0.03162 µM): 0.519
- relative viability (NCI-H2085; first compound 0.1 µM): 0.526
- relative viability (NCI-H2085; first compound 0.3162 µM): 0.614
- relative viability (NCI-H2085; first compound 1 µM): 0.502
- relative viability (NCI-H1734; first compound 0.01 µM): 0.584
- relative viability (NCI-H1734; first compound 0.03162 µM): 0.508
- relative viability (NCI-H1734; first compound 0.1 µM): 0.536
- relative viability (NCI-H1734; first compound 0.3162 µM): 0.498
- relative viability (NCI-H1734; first compound 1 µM): 0.517
- relative viability (NCI-H322M; first compound 0.01 µM): 0.683
- relative viability (NCI-H322M; first compound 0.03162 µM): 0.678
- relative viability (NCI-H322M; first compound 0.3162 µM): 0.748
- relative viability (NCI-H322M; first compound 1 µM): 0.751
